Like-named read-outs stand apart in the source and are kept apart here.
Experiments:
K-562 = assay: Inhibition of cells growth by colorimetric (SRB) assay, K-562; conditions: for GI50: read-out: GI50 K-562
Outline: (§1)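 Human tumour cells seeded at 5×10^3/well in RPMI 1640 10% FBS, attached 18 h, then exposed 48 h to samples at 10 to 10^−8 μg/ml in DMSO/EtOH/PBS (0.5:0.5:99). Growth read by SRB staining after TCA fixation, OD 490 nm, triplicate wells; GI, TGI and LC derived.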

A-549 = assay: Inhibition of cells growth by colorimetric (SRB) assay, A-549; conditions: for GI50: read-out: GI50 A-549
Outline: as §1

SK-MEL-28 = assay: Inhibition of cells growth by colorimetric (SRB) assay, SK-MEL-28
Outline: as §1

HT-29 = assay: Inhibition of cells growth by colorimetric (SRB) assay, HT-29
Outline: as §1

LoVo = assay: Inhibition of cells growth by colorimetric (SRB) assay, LoVo; conditions: for CC50: read-out: LC50 LOVO
Outline: as §1

LoVo-Dox = assay: Inhibition of cells growth by colorimetric (SRB) assay, LoVo-Dox
Outline: as §1

DU-145 = assay: Inhibition of cells growth by colorimetric (SRB) assay, DU-145; conditions: for GI50: read-out: GI50 DU-145
Outline: as §1

LNCaP = assay: Inhibition of cells growth by colorimetric (SRB) assay, LNCaP; conditions: for CC50: read-out: LC50 LN-caP
Outline: as §1

SK-BR-3 = assay: Inhibition of cells growth by colorimetric (SRB) assay, SK-BR-3; conditions: SRB assay, 48 hours exposure; for GI50: read-out: GI50 SK-BR-3; for CC50: read-out: LC50 SK-BR-3
Text: (§2) The finality of these assays is to interrupt the growth of a “in vitro” tumor cell culture by means a continued exhibition of the cells to the sample to be testing.
(§3) This form of the assay employs 96 well cell culture microplates of 9 mm diameter (Faircloth, 1988; Mosmann, 1983). Most of the cell lines are obtained from American Type Culture Collection (ATCC) derived from different human cancer types.
(§4) Cells are maintained in RPMI 1640 10% FBS, supplemented with 0.1 g/l penicillin and 0.1 g/l streptomycin sulphate and then incubated at 37° C., 5% CO2 and 98% humidity. For the experiments, cells were harvested from subconfluent cultures using trypsin and resuspended in fresh medium before plating.
(§5) Cells are seeded in 96 well microtiter plates, at 5×10^3 cells per well in aliquots of 195 μl medium, and they are allowed to attach to the plate surface by growing in drug free medium for 18 hours. Afterward, samples are added in aliquots of 5 μl in a ranging from 10 to 10^−8 μg/ml, dissolved in DMSO/EtOH/PBS (0.5:0.5:99). After 48 hours exposure, the antitumor effect are measured by the SRB methodology: cells are fixed by adding 50 μl of cold 50% (wt/vol) trichloroacetic acid (TCA) and incubating for 60 minutes at 4° C. Plates are washed with deionized water and dried. One hundred μl of SRB solution (0.4% wt/vol in 1% acetic acid) is added to each microtiter well and incubated for 10 minutes at room temperature. Unbound SRB is removed by washing with 1% acetic acid. Plates are air dried and bound stain is solubilized with Tris buffer. Optical densities are read on a automated spectrophotometric plate reader at a single wavelength of 490 nm.
(§6) The values for mean +/−SD of data from triplicate wells are calculated. Some parameters for cellular responses can be calculated: GI=growth inhibition, TGI=total growth inhibition (cytostatic effect) and LC=cell killing (cytotoxic effect).

IGROV-1 = assay: Inhibition of cells growth by colorimetric (SRB) assay, IGROV-1; conditions: for CC50: read-out: LC50 IGROV
Outline: as §1

IGROV-ET = assay: Inhibition of cells growth by colorimetric (SRB) assay, IGROV-ET
Outline: as §1

SK-OV-3 = assay: Inhibition of cells growth by colorimetric (SRB) assay, SK-OV-3
Outline: as §1

PANC-1 = assay: Inhibition of cells growth by colorimetric (SRB) assay, PANC-1; conditions: for GI50: read-out: GI50 PANC-1
Outline: as §1

HMEC1 = assay: Inhibition of cells growth by colorimetric (SRB) assay, HMEC1; conditions: for TGI H-MEC-1: in M (unit assumed); for CC50: read-out: LC50 H-MEC-1
Text: as §2, §3, §4, §5, §6

Cl.Nc1nccc(-c2c3cc4ccccc4nc3n3c(N)nccc23)n1 [Compound 42]
CC50 (K-562; Homo sapiens, K562, 48 h, read-out: LC50 K-562, SRB assay, 48 hours exposure): 14600 nM
TGI K-562 (K-562; SRB assay, 48 hours exposure): 7.69E−06
GI50 (K-562; SRB assay, 48 hours exposure): 4070 nM
CC50 (A-549; Homo sapiens, A549, 48 h, read-out: LC50 A-549, SRB assay, 48 hours exposure): 14300 nM
TGI A-549 (A-549; SRB assay, 48 hours exposure): 2.26E−06
GI50 (A-549; SRB assay, 48 hours exposure): 135 nM
GI50 (SK-MEL-28; Homo sapiens, SK-MEL-28, 48 h, read-out: GI50 MEL-28, SRB assay, 48 hours exposure): 2560 nM
CC50 (SK-MEL-28; Homo sapiens, SK-MEL-28, 48 h, read-out: LC50 MEL-28, SRB assay, 48 hours exposure): 25000 nM
TGI MEL-28 (SK-MEL-28; SRB assay, 48 hours exposure): 2.50E−05
GI50 (HT-29; Homo sapiens, HT-29, 48 h, read-out: GI50 HT-29, SRB assay, 48 hours exposure): 1990 nM
CC50 (HT-29; Homo sapiens, HT-29, 48 h, read-out: LC50 HT-29, SRB assay, 48 hours exposure): 25000 nM
TGI HT-29 (HT-29; SRB assay, 48 hours exposure): 2.50E−05
GI50 (LoVo; Homo sapiens, LoVo, 48 h, read-out: GI50 LOVO, SRB assay, 48 hours exposure): 884 nM
TGI LOVO (LoVo; SRB assay, 48 hours exposure): 5.42E−06
CC50 (LoVo; SRB assay, 48 hours exposure): 25000 nM
GI50 (LoVo-Dox; Homo sapiens, 48 h, read-out: GI50 LOVO-DOX, SRB assay, 48 hours exposure): 954 nM
CC50 (LoVo-Dox; Homo sapiens, 48 h, read-out: LC50 LOVO-DOX, SRB assay, 48 hours exposure): 15500 nM
TGI LOVO-DOX (LoVo-Dox; SRB assay, 48 hours exposure): 3.62E−06
TGI DU-145 (DU-145; SRB assay, 48 hours exposure): 6.10E−06
GI50 (DU-145; SRB assay, 48 hours exposure): 1480 nM
CC50 (DU-145; read-out: LC50 DU-145, SRB assay, 48 hours exposure): 21100 nM
GI50 (LNCaP; Homo sapiens, LNCaP, 48 h, read-out: GI50 LN-caP, SRB assay, 48 hours exposure): 432 nM
TGI LN-caP (LNCaP; SRB assay, 48 hours exposure): 1.25E−06
CC50 (LNCaP; SRB assay, 48 hours exposure): 5970 nM
TGI SK-BR-3 (SK-BR-3): 3.22E−07
GI50 (SK-BR-3): 67.7 nM
CC50 (SK-BR-3): 1670 nM
GI50 (IGROV-1; Homo sapiens, IGROV-1, 48 h, read-out: GI50 IGROV, SRB assay, 48 hours exposure): 1560 nM
TGI IGROV (IGROV-1; SRB assay, 48 hours exposure): 5.15E−06
CC50 (IGROV-1; SRB assay, 48 hours exposure): 13000 nM
GI50 (IGROV-ET; Homo sapiens, 48 h, read-out: GI50 IGROV-ET, SRB assay, 48 hours exposure): 1700 nM
CC50 (IGROV-ET; Homo sapiens, 48 h, read-out: LC50 IGROV-ET, SRB assay, 48 hours exposure): 15400 nM
TGI IGROV-ET (IGROV-ET; SRB assay, 48 hours exposure): 5.45E−06
GI50 (SK-OV-3; Homo sapiens, SK-OV-3, 48 h, read-out: GI50 SKOV-3, SRB assay, 48 hours exposure): 1080 nM
CC50 (SK-OV-3; Homo sapiens, SK-OV-3, 48 h, read-out: LC50 SKOV-3, SRB assay, 48 hours exposure): 21500 nM
TGI SKOV-3 (SK-OV-3; SRB assay, 48 hours exposure): 5.32E−06
CC50 (PANC-1; Homo sapiens, PANC-1, 48 h, read-out: LC50 PANC-1, SRB assay, 48 hours exposure): 25000 nM
TGI PANC-1 (PANC-1; SRB assay, 48 hours exposure): 2.50E−05
GI50 (PANC-1; SRB assay, 48 hours exposure): 8870 nM
GI50 (HMEC1; Homo sapiens, HMEC-1, 48 h, read-out: GI50 H-MEC-1, SRB assay, 48 hours exposure): 114 nM
TGI H-MEC-1 (HMEC1; SRB assay, 48 hours exposure): 5.32E−07
CC50 (HMEC1; SRB assay, 48 hours exposure): 1860 nM

Cc1ccc2c(-c3ccnc(N)n3)c3ccnc(N)n3c2n1 [Compound 24]
TGI K-562 (K-562; SRB assay, 48 hours exposure): 7.35E−06
GI50 (K-562; SRB assay, 48 hours exposure): 1620 nM
CC50 (K-562; read-out: LC50 K-562, SRB assay, 48 hours exposure): 22200 nM
TGI A-549 (A-549; SRB assay, 48 hours exposure): 6.87E−06
GI50 (A-549; SRB assay, 48 hours exposure): 1380 nM
CC50 (A-549; read-out: LC50 A-549, SRB assay, 48 hours exposure): 17500 nM
TGI MEL-28 (SK-MEL-28; SRB assay, 48 hours exposure): 3.43E−06
GI50 (SK-MEL-28; read-out: GI50 MEL-28, SRB assay, 48 hours exposure): 721 nM
CC50 (SK-MEL-28; read-out: LC50 MEL-28, SRB assay, 48 hours exposure): 12600 nM
TGI HT-29 (HT-29; SRB assay, 48 hours exposure): 3.43E−05
GI50 (HT-29; read-out: GI50 HT-29, SRB assay, 48 hours exposure): 16400 nM
CC50 (HT-29; read-out: LC50 HT-29, SRB assay, 48 hours exposure): ≥ 34300 nM
TGI LOVO (LoVo; SRB assay, 48 hours exposure): 1.22E−06
GI50 (LoVo; read-out: GI50 LOVO, SRB assay, 48 hours exposure): 325 nM
CC50 (LoVo; SRB assay, 48 hours exposure): > 34300 nM
TGI LOVO-DOX (LoVo-Dox; SRB assay, 48 hours exposure): 3.43E−06
GI50 (LoVo-Dox; read-out: GI50 LOVO-DOX, SRB assay, 48 hours exposure): 642 nM
CC50 (LoVo-Dox; read-out: LC50 LOVO-DOX, SRB assay, 48 hours exposure): ≥ 34300 nM
CC50 (DU-145; Homo sapiens, DU-145, 48 h, read-out: LC50 DU-145, SRB assay, 48 hours exposure): 15600 nM
TGI DU-145 (DU-145; SRB assay, 48 hours exposure): 1.91E−06
GI50 (DU-145; SRB assay, 48 hours exposure): 831 nM
TGI LN-caP (LNCaP; SRB assay, 48 hours exposure): 7.24E−07
GI50 (LNCaP; read-out: GI50 LN-caP, SRB assay, 48 hours exposure): 174 nM
CC50 (LNCaP; SRB assay, 48 hours exposure): ≥ 34300 nM
TGI SK-BR-3 (SK-BR-3): 4.77E−06
GI50 (SK-BR-3): 1040 nM
CC50 (SK-BR-3): 10400 nM
TGI IGROV (IGROV-1; SRB assay, 48 hours exposure): 6.38E−06
GI50 (IGROV-1; read-out: GI50 IGROV, SRB assay, 48 hours exposure): 995 nM
CC50 (IGROV-1; SRB assay, 48 hours exposure): 23000 nM
TGI IGROV-ET (IGROV-ET; SRB assay, 48 hours exposure): 7.11E−06
GI50 (IGROV-ET; read-out: GI50 IGROV-ET, SRB assay, 48 hours exposure): 1010 nM
CC50 (IGROV-ET; read-out: LC50 IGROV-ET, SRB assay, 48 hours exposure): ≥ 34300 nM
TGI SKOV-3 (SK-OV-3; SRB assay, 48 hours exposure): 1.00E−05
GI50 (SK-OV-3; read-out: GI50 SKOV-3, SRB assay, 48 hours exposure): 1390 nM
CC50 (SK-OV-3; read-out: LC50 SKOV-3, SRB assay, 48 hours exposure): ≥ 34300 nM
TGI PANC-1 (PANC-1; SRB assay, 48 hours exposure): 2.06E−05
GI50 (PANC-1; SRB assay, 48 hours exposure): 3880 nM
CC50 (PANC-1; read-out: LC50 PANC-1, SRB assay, 48 hours exposure): ≥ 34300 nM
TGI H-MEC-1 (HMEC1; SRB assay, 48 hours exposure): 7.86E−07
GI50 (HMEC1; read-out: GI50 H-MEC-1, SRB assay, 48 hours exposure): 247 nM
CC50 (HMEC1; SRB assay, 48 hours exposure): 2670 nM
